In experiment [1] the target is T1, Recombinant STAT3 protein (STAT3 (G127-I722)) (Homo sapiens, UniProt P40763).
T1 construct: Recombinant STAT3 protein (STAT3 (G127-I722))
In words: STAT3 Fluorescence Polarization (FP) Assay. Particulars: probe 5-FAM-GpYLPQTV-NH2 2 nM, 45-minute incubation. The experiment is classed as binding. Summed up: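 Read-out is fluorescence polarization (mP) after 45 min at room temperature, with IC50 fitted by nonlinear regression against log compound concentration. Mixture: 25 nM STAT3 (G127-I722), 2 nM 5-FAM-GpYLPQTV-NH2 phosphopeptide, 10 mM HEPES pH 7.4 buffer, 1% DMSO.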
On the technique in general: Polarisation of emitted light reports the rotation of a fluorescent probe.

For experiment [2], the target named is T2, Recombinant STAT6 protein (STAT6 (W123-T658)) (Homo sapiens, UniProt P42226).
T2 construct: Recombinant STAT6 protein (STAT6 (W123-T658))
T2 sequence (P42226 123-658): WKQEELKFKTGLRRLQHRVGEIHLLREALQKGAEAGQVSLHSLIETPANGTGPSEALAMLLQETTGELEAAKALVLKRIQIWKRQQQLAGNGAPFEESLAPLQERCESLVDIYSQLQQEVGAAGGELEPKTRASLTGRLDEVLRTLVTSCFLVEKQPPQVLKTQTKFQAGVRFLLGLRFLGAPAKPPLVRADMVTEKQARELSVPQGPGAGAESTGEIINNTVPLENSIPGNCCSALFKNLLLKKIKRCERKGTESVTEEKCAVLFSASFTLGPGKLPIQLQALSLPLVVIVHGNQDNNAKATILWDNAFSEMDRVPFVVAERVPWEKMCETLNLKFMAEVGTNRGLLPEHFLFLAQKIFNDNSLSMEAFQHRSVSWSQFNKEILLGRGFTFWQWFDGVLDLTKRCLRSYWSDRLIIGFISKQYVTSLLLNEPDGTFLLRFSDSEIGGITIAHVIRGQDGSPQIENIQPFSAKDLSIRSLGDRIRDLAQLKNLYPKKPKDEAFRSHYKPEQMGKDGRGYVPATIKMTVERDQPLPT
The experiment is described as follows: STAT6 Fluorescence Polarization (FP) Assay. It is filed as binding. The settings on record: probe 5-FAM-Ap[…]-NH2 2 nM, 45-minute incubation. Summed up: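 Probe displacement format: serially diluted compounds incubated 45 min at room temperature with 2 nM fluorescent phosphopeptide and 250 nM STAT6 (W123-T658) in pH 7.4 HEPES buffer, 1% DMSO final. Polarization signal plotted against log concentration, IC50 fitted by nonlinear regression.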

[3] abbreviates: STAT3 (G127-I722) 25 nM, read-out: STAT3 (FP assay IC50 class).
[4] abbreviates: STAT6 (W123-T658) 250 nM, read-out: STAT6 (FP assay IC50 class).
The mark [5] stands for this setting: STAT3 25 nM, read-out: STAT3 (FP assay IC50).
Setting [6] is: STAT6 250 nM, read-out: STAT6 (FP assay IC50).

By pIC50 is commonly meant the negative decadic logarithm of the IC50, by convention in mol/L.

pIC50: −log10 of the molar value. Read-outs that look alike come from different tables or passages of the source. Where only a bound is given, the exact number is not on record here.

T1 sequence (P40763 127-722): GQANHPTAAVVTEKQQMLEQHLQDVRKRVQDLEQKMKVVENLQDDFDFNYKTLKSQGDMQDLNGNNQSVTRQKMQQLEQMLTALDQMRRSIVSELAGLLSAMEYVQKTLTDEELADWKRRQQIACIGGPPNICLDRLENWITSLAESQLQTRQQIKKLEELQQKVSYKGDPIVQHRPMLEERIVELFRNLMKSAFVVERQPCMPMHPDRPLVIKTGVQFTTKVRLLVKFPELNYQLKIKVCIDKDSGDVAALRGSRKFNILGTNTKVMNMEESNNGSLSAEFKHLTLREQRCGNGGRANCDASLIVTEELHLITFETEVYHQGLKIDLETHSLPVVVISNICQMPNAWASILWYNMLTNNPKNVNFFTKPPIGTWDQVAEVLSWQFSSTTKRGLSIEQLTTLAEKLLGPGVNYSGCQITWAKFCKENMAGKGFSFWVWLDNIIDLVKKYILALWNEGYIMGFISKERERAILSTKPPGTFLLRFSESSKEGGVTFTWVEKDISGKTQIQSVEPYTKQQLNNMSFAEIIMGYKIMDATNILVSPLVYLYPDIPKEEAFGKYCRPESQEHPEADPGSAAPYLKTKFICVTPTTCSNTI

Regarding `O=C(N[C@H]1CCC[C@H]2CC[C@@H](C(=O)N3CC(c4cc5cccnc5cc4F)C3)N2C1=O)c1cc2cc(C(F)P(=O)(O)O)ccc2s1` (stereo partly drawn) [Compound 560, (fluoro(2-(((3S,6S,9aS)-3-(3-(7-fluoroquinolin-6-yl)azetidine-1-carbonyl)-5-oxooctahydro-1H-pyrrolo[1,2-a]azepin-6-yl)carbamoyl)benzo[b]thiophen-5-yl)methyl)phosphonic acid], the values for the pIC50 in experiment [1] (setting [3]) and in experiment [2] (setting [4]) were 5.00 to 6.00 and 4.52 to 5.52, respectively.
The matching figures for `N#C[C@H]1[C@H](c2ccccc2)CN(C(=O)[C@@H]2CC[C@@H]3CCC[C@H](NC(=O)c4cc5cc([C@H](F)P(=O)(O)O)ccc5s4)C(=O)N32)C12CC2` (single isomer, unassigned) [Compound 916]: 5.00 to 6.00 and at least 6.52.
For `CC(O)C1(c2ccccc2)CN(C(=O)[C@@H]2CC[C@@H]3CCCC[C@H](NC(=O)c4cc5cc(C(F)(F)P(=O)(O)O)ccc5s4)C(=O)N32)C1` (stereo partly drawn) [Compound 495, (difluoro(2-(((3S,6S,10aS)-3-(3-(1-hydroxyethyl)-3-phenylazetidine-1-carbonyl)-5-oxodecahydropyrrolo[1,2-a]azocin-6-yl)carbamoyl)benzo[b]thiophen-5-yl)methyl)phosphonic acid], the pIC50 is 6.00 to 7.00 in experiment [1] (setting [3]) and 4.52 to 5.52 in experiment [2] (setting [4]).
The matching figures for `N#C[C@@H]1CN(C(=O)[C@@H]2CC[C@@H]3CCC[C@@H](C4CC4)[C@H](NC(=O)c4cc5cc(C(F)(F)P(=O)(O)O)ccc5s4)C(=O)N32)C[C@H]1c1ccccc1` (single isomer, unassigned) [Compound 234]: 5.00 to 6.00 and at least 6.52.
`N#Cc1cncc(C2CN(C(=O)[C@@H]3CC[C@@H]4CCC[C@H](NC(=O)c5cc6cc(CP(=O)(O)O)ccc6s5)C(=O)N43)C2)c1` [Compound 659, ((2-(((3S,6S,9aS)-3-(3-(5-cyanopyridin-3-yl)azetidine-1-carbonyl)-5-oxooctahydro-1H-pyrrolo[1,2-a]azepin-6-yl)carbamoyl)benzo [b]thiophen-5-yl)methyl) phosphonic acid]: the pIC50 is 5.00 to 6.00 in experiment [1] (setting [3]) and 4.52 to 5.52 in experiment [2] (setting [4]).
The matching figures for `CC(C)[C@H]1CC[C@H](NC(=O)c2cc3cc(C(F)P(=O)(O)O)ccc3s2)C(=O)N2[C@H](CC[C@H]2C(=O)N2C[C@@H](C#N)[C@H](c3ccccc3)C2)C1` (single isomer, unassigned) [Compound 238]: 5.00 to 6.00 and at least 6.52.
The matching figures for `COC[C@@H]1CCN1c1ccncc1C1CN(C(=O)[C@@H]2CC[C@@H]3CCC[C@H](NC(=O)c4cc5cc(CP(=O)(O)O)ccc5s4)C(=O)N32)C1` [Compound 213, ((2-(((3S,6S,9aS)-3-(3-(4-((S)-2-(methoxymethyl)azetidin-1-yl)pyridin-3-yl)azetidine-1-carbonyl)-5-oxooctahydro-1H-pyrrolo[1,2-a]azepin-6-yl)carbamoyl)benzo[b]thiophen-5-yl)methyl)phosphonic acid]: above 7.00 and 4.52 to 5.52.
The matching figures for `O=C(N[C@H]1CCC[C@H]2CC[C@@H](C(=O)N3CC(c4cnccc4C4CC4)C3)N2C1=O)c1cc2cc(CP(=O)(O)O)ccc2s1` [Compound 517, ((2-(((3S,6S,9aS)-3-(3-(4-cyclopropylpyridin-3-yl)azetidine-1-carbonyl)-5-oxooctahydro-1H-pyrrolo[1,2-a]azepin-6-yl)carbamoyl)benzo[b]thiophen-5-yl)methyl)phosphonic acid]: 6.00 to 7.00 and 4.52 to 5.52.
In the case of `N#C[C@@H]1CN(C(=O)[C@@H]2CC[C@@H]3CCCC[C@H](NC(=O)c4cc5cc(C(F)P(=O)(O)O)ccc5s4)C(=O)N32)C[C@H]1c1ccccc1` (single isomer, unassigned) [Compound 224], the negative logarithm of the IC50 (pIC50) in experiment [1] (setting [3]) is 5.00 to 6.00; in experiment [2] (setting [4]) it was at least 6.52.
For the compound `O=C(N[C@H]1CCCC[C@H]2CC[C@@H](C(=O)N3CC4(CN(C(=O)Cc5ccccc5)C4)C3)N2C1=O)c1cc2cc(C(F)(F)P(=O)(O)O)ccc2s1` [Compound 42, (difluoro(2-(((3S,6S,10aS)-5-oxo-3-(6-(2-phenylacetyl)-2,6-diazaspiro[3.3]heptane-2-carbonyl)decahydropyrrolo [1,2-a]azocin-6-yl)carbamoyl)benzo[b]thiophen-5-yl)methyl) phosphonic acid], the pIC50 was 6.00 to 7.00 in experiment [1] (setting [5]) and at least 6.52 in experiment [2] (setting [6]).
On to `O=C(N[C@H]1CCC[C@H]2CC[C@@H](C(=O)N3CC(c4ccncc4F)C3)N2C1=O)c1cc2cc(C(F)P(=O)(O)O)ccc2s1` (stereo partly drawn) [Compound 610, (fluoro(2-(((3S,6S,9aS)-3-(3-(3-fluoropyridin-4-yl)azetidine-1-carbonyl)-5-oxooctahydro-1H-pyrrolo[1,2-a]azepin-6-yl)carbamoyl)benzo [b]thiophen-5-yl)methyl) phosphonic acid], for which the pIC50 in experiment [1] (setting [3]) is 6.00 to 7.00; in experiment [2] (setting [4]), 4.52 to 5.52.
In the case of `COc1ccncc1C1CN(C(=O)[C@@H]2CC[C@@H]3CCC[C@H](NC(=O)c4cc5cc([C@H](F)P(=O)(O)O)ccc5s4)C(=O)N32)C1` (single isomer, unassigned) [Compound 747], the negative logarithm of the IC50 (pIC50) in experiment [1] (setting [3]) is above 7.00; in experiment [2] (setting [4]) it was 4.52 to 5.52.
For `O=C(N[C@H]1CCC[C@H]2CC[C@@H](C(=O)N3CC(c4cnccc4N4CCOCC4)C3)N2C1=O)c1cc2cc(C(F)P(=O)(O)O)ccc2s1` (stereo partly drawn) [Compound 626, (fluoro(2-(((3S,6S,9aS)-3-(3-(4-morpholinopyridin-3-yl)azetidine-1-carbonyl)-5-oxooctahydro-1H-pyrrolo[1,2-a]azepin-6-yl)carbamoyl)benzo [b]thiophen-5-yl)methyl) phosphonic acid] the same measures were above 7.00 and 4.52 to 5.52.
In the case of `N#C[C@@H]1CN(C(=O)[C@@H]2CC[C@@H]3CCC[C@H](NC(=O)c4cc5cc(C(F)(F)P(=O)(O)O)ccc5s4)C(=O)N32)C[C@H]1c1ccccc1` (relative stereo) [Compound 96, ((2-(((3S,6S,9aS)-3-(rel-(trans)-3-cyano-4-phenylpyrrolidine-1-carbonyl)-5-oxooctahydro-1H-pyrrolo [1,2-a]azepin-6-yl)carbamoyl)benzo[b]thiophen-5-yl)difluoromethyl) phosphonic acid], the pIC50 in experiment [1] (setting [5]) was 6.00 to 7.00; in experiment [2] (setting [6]), at least 6.52.
With `O=C(N[C@H]1CCCC[C@H]2CC[C@@H](C(=O)N3CCC(c4n[nH]cc4F)CC3)N2C1=O)c1cc2cc(C(F)P(=O)(O)O)ccc2s1` (stereo partly drawn) [Compound 587, (fluoro(2-(((3S,6S,10aS)-3-(4-(4-fluoro-1H-pyrazol-3-yl)piperidine-1-carbonyl)-5-oxodecahydropyrrolo[1,2-a]azocin-6-yl)carbamoyl)benzo[b]thiophen-5-yl)methyl)phosphonic acid], the values for the negative logarithm of the IC50 (pIC50) in experiment [1] (setting [3]) and in experiment [2] (setting [4]) were 5.00 to 6.00 and 4.52 to 5.52, respectively.
The matching figures for `Cn1cnc2cc(CNC(=O)[C@@H]3CC[C@@H]4CCC[C@H](NC(=O)c5cc6cc(C(F)(F)P(=O)(O)O)ccc6s5)C(=O)N43)cnc21` [Compound 1119, (difluoro(2-(((3S,6S,9aS)-3-(((3-methyl-3H-imidazo[4,5-b]pyridin-6-yl)methyl)carbamoyl)-5-oxooctahydro-1H-pyrrolo[1,2-a]azepin-6-yl)carbamoyl)benzo[b]thiophen-5-yl)methyl)phosphonic acid]: 6.00 to 7.00 and 5.52 to 6.52.

These data come from patent US20250215029A1 (Recludix Pharma, Inc., priority 2022, published 2025).
